The values below come from publication PMC6694155, “PTPσ inhibitors promote hematopoietic stem cell regeneration” (Nature Communications, 2019).

The structures appear in SMILES notation. Several values for one entry are separate records, joined by “and”; a condition that tells them apart may be missing. Equal entries are not always repeated.

For one test, the system named is pERK1/2 in BM KSL cells. Description: phospho-ERK1/2 immunofluorescence microscopy. Type of test: cell-based, mouse. The following applies: irradiated BM KSL cells. The protocol: Lab-Tek chamber slides were coated with fibronectin (25 µg/mL, Millipore Sigma #341635). Sorted BM KSL cells (1 × 10^4) were resuspended in 200 µL TSF media and added to each of the pre-coated wells and incubated overnight (37 °C/5% CO2). The next day, cells were serum starved for 30 min and then stimulated with DJ001 (1 µg/mL), EHT1864 (6 µg/mL), or equal volumes of DMSO for 5 min. Cells were washed once with PBS and fixed with 4% PFA for 10 min. Cells were permeabilized with 0.5% Triton/PBS (PRM) for 30 min and then blocked with 5% fetal bovine serum (FBS)/PRM for 1 h. The slide was then incubated with a phospho-ERK1/2 primary antibody (Cell Signaling, #4377, 1:200) for 1 h. The wells were washed three times and then incubated with a donkey anti-rabbit Alexa Fluor 488 secondary antibody (Thermo Fischer, #A21206, 1:200) at a 1:200 concentration for 1 h. The slide was washed three times and mounted with ProLong Gold Antifade Reagent with DAPI. Cells were imaged using a ×63 objective on a Zeiss Axio Imager M2 widefield fluorescence microscope with all microscope settings derived from imaging a secondary only control. Data were analyzed using Fiji (ImageJ). Briefly, the cell outline was identified by threshold levels and the mean fluorescence intensity within the cell area was quantified.

Test [1] relates to BM cells from irradiated CD45.2+ mice in CD45.1+ recipient mice. As to the kind of experiment: HSC competitive repopulation assay. Format: in vivo, mouse. The protocol:
Femurs and tibiae were collected from killed C57BL/6 or Ptprs^−/− mice and flushed with IMDM containing 10% FBS and 1% penicillin–streptomycin for BM cells. PB was collected through sub-mandibular puncture. Cells were filtered through a 40 μM strainer and then treated with ACK lysis buffer (Sigma Aldrich) before antibody staining for flow cytometry. For KSL and CD150^+CD48^−KSL cell analysis, BM cells were stained with allophycocyanin (APC)-and Cy7-conjugated anti-mouse Sca1 (BD Biosciences, #560654, 1:100), phycoerythrin (PE)-conjugated anti-mouse c-kit (BD Biosciences, #553355, 1:100), V450 lineage cocktail (BD Biosciences, 561301, 1:10), Alexa Fluor 488-conjugated anti-mouse CD48 (BioLegend, #103414, 1:100), and Alexa Fluor 647-conjugated anti-mouse CD150 (Biolegend, #115918, 1:100) antibodies. […]
CFC assays (colony-forming unit-granulocyte monocyte), burst-forming unit-erythroid, and CFU-GEMM were performed using MethoCult GF M3434 (Stemcell Technologies)[6]. […] Multilineage donor hematopoietic cell engraftment was measured in the PB by flow cytometry.

Test [2] addresses T1, PTPN22 (Protein Tyrosine Phosphatase Non-Receptor Type 22) (Homo sapiens, UniProt Q9Y2R2).
T1 construct: purchased Eurofins Pharma Discovery Services UK
As to the kind of experiment: PhosphataseProfiler screen: PTPN22. Type of test: biochemical. As to conditions: replicates. The protocol: (§1) Compound DJ001 was evaluated in a PhosphataseProfiler™ screen at 10 μM and 1 μM (2.7 μg/mL and 0.27 μg/mL) concentrations at Eurofins Pharma Discovery Services UK (Study number UK022-0004033) against a panel of 21 Phosphatases. In each experiment, the respective reference antagonist/agonist was tested directly with DJ001 and the data were compared with historical values determined at Eurofins. DJ001 compound inhibition was calculated as percentage inhibition of the enzymatic activity compared with control.

The test system of the next test is RAC1-GTP in BM KSL cells. As to the kind of experiment: RAC1-GTP intracellular flow cytometry of BM KSL cells. Type of test: cell-based, mouse. Also on record: Figure 3c: RAC1-GTP in BM KSL cells: unit not given here. As to conditions: for Figure 3c: RAC1-GTP in BM KSL cells: individual replicates. How it is done:
Intracellular flow cytometric analysis was performed on irradiated (300 cGy) or non-irradiated, sorted KSL cells after treatment with 1 μg/mL DJ001 or control (equal volumes of DMSO) for 24 h. At 24 h after irradiation, cells were fixed with 4% PFA for 10 min, followed by permeabilization using 0.25% saponin in PBS. Cells were washed again and stained with antibody at the recommended concentrations for 30 min at RT. Intracellular antibodies and phospho-flow antibodies used were as follows: FITC-conjugated anti-BCL-XL (Abcam, #26148, 1:100), active RAC1-GTP antibody (NewEast Biosciences, #26903, 1:100) and anti-PAK1 (phospho S144) + PAK2 (phospho S141) + PAK3 (phospho S154) antibody (Abcam, #40795, 1:100), and FITC-conjugated goat anti-rabbit IgG H&L (Abcam, #97050, 1:200).
In general terms: A flow cytometer gives signals particle by particle.

Test [3] has as its target T2, PPα (Protein Phosphatase 1 Catalytic Subunit alpha) (Homo sapiens, UniProt P62136).
T2 construct: purchased Eurofins Pharma Discovery Services UK
As to the kind of experiment: PhosphataseProfiler screen: PPα. Type of test: biochemical. As to conditions: replicates. How it is done:
as §1

T2 sequence (P62136 whole entry): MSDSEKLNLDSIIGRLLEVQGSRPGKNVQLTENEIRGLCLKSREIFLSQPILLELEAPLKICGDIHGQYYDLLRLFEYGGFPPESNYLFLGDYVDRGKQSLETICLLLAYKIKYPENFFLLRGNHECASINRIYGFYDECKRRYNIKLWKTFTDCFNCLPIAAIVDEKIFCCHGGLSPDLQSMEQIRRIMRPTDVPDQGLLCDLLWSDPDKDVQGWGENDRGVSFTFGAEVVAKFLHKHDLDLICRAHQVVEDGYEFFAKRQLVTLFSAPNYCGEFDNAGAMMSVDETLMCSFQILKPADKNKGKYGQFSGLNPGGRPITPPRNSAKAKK
T1 sequence (Q9Y2R2 whole entry, species assumed): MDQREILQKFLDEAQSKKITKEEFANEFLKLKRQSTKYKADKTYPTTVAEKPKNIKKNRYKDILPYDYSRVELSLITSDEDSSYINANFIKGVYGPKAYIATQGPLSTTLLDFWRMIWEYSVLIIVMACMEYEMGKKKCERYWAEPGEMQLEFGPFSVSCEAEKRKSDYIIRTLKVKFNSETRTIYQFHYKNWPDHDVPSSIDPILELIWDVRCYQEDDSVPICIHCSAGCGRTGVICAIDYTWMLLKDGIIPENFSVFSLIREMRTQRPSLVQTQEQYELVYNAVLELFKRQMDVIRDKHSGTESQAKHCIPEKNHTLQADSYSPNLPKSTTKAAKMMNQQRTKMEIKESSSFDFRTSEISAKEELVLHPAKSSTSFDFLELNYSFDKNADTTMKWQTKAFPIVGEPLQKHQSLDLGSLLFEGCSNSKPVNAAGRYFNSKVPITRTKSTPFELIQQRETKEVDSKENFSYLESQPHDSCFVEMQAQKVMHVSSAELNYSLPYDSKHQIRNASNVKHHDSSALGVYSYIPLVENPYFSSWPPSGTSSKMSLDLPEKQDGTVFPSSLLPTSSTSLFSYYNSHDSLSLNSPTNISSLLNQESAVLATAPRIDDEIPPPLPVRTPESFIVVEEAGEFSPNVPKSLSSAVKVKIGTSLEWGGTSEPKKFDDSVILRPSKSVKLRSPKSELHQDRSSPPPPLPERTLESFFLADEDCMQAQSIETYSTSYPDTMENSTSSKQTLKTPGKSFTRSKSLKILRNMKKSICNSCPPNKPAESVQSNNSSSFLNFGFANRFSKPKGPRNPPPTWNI

`O=C(/C=C\Nc1cccc([N+](=O)[O-])c1)c1ccccc1` [DJ001, (Z)-3-((3-nitrophenyl)amino)-1-phenylprop-2-en-1-one]: the ERK1/2 phosphorylation entry in the test with pERK1/2 in BM KSL cells is reported as “induced ERK1/2 phosphorylation”. Besides, the “percentages of donor myeloid cells, B cells and T cells in PB vs control” value in test [1] (20 weeks post transplant) is “significantly increased percentages”. For the same compound, the “donor hematopoietic reconstitution over time compared with controls” value in test [1] (donors: 750 cGy, 5 mg/kg DJ001 daily, BM at day +10) is recorded as “significantly increased donor hematopoietic reconstitution”. In addition, the “Supplementary Figure 1: PTPN22 activity” value in test [2] (2.7 μg/mL DJ001) is 94 (2×) and 89; in test [2] (0.27 g/mL DJ001) it was 103 and 99 and 94. Also, the figures for the RAC1-GTP levels entry in the test on RAC1-GTP in BM KSL cells (BM KSL cells from Ptprs+/+ mice) and with RAC1-GTP in BM KSL cells (BM KSL cells from Ptprs−/− mice) were “rapid increase in RAC1-GTP levels” and “no change in RAC1-GTP levels”, respectively. Besides, the “Figure 3c: RAC1-GTP in BM KSL cells” value with RAC1-GTP in BM KSL cells (Ptprs+/+ cells) was 42 and 37.6 and 37.8 and 37.4 and 37.3; in the test on RAC1-GTP in BM KSL cells (Ptprs-/- cells) it was 84.6 and 83.8 and 81.9 and 85.5 and 85.6. The “Supplementary Figure 1: PP activity” value in test [3] (2.7 μg/mL DJ001) is 87 and 90 and 89; in test [3] (0.27 g/mL DJ001), 99 and 95 (2×).
